Measurements taken from ChEMBL document CHEMBL1201862, “PubChem BioAssay data set” (2004).
The source made the active and inactive calls.

Tests used:
[1] = molecular target: Acyl-homoserine lactone acylase PvdQ (Pseudomonas aeruginosa (strain LESB58), UniProt Q9I194); assay: P. aeruginosa PvdQ acylase inhibitors, dose response, biochemical, fluorescence, plate reader and imaging, cherry-picks (AID 493231)
[2] = Luminescence Cell-Based Dose Confirmation HTS to Identify Inhibitors of Platelet Dense Granule Release. [Related pubchem assays: 1663 (Primary HTS), 1678 (Summary of Project)]; format: functional
[3] = inhibition of ADP-Glo detection reagents, dose response, artefact control for CDK5 inhibitor project, biochemical, luminescence, cherry-picked samples, set 2 (AID 504546); format: functional
[4] = inhibitors of HIV Env-driven cell fusion, dose response, cherry-pick (AID 652057); format: functional, cell-based
[5] = CEM21 lymphoblast cell cytotoxicity, dose response, cytotoxicity control for viral fusion inhibitor project, CellTiter-Glo luminescence, cherry-picked (AID 652042); format: functional, cell-based;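 further: potency for signal decrease meaning cytotoxicity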
[6] = ZM109 Env clade C HIV-1 fusion inhibitors, dose response, HeLa effector, CEM target cells, luciferase, cherry-pick (AID 652058); format: functional, cell-based
[7] = off-target signal loss in HeLa-CEM21 co-culture – HeLa F-luc CTL cells, cherry-picked, counter-screen for HIV-1 Env fusion inhibitor project, dose response (AID 652040); format: functional, cell-based;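 further: potency for signal decrease marking cytotoxic or nonspecific inhibition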
[8] = inhibitors of clade B AD8 Env fusion, dose response, cell-based, cherry-pick (AID 652062); format: functional;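 further: luciferase signal from cell-cell fusion driven by HIV-1 clade B AD8 Env; potency is for inhibitors of fusion seen as a drop in luminescence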
[9] = non-specific cell cytotoxicity, dose response, cytotoxicity control for PAX8 inhibitor project, plate reader, dry powder samples (AID 743021); format: functional, cell-based
[10] = cytotoxicity in HPDE-C7 cells, cell-based, fluorescence, HTS (AID 430); format: functional; conditions: Homo sapiens
[11] = cytotoxicity in KRAS-transformed pancreatic duct cells, primary screen, cell-based, fluorescence, HTS (AID 431); format: functional; conditions: Homo sapiens;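 further: cell line used: HPDE-C7K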
[12] = molecular target: Neurotensin receptor type 1 (Homo sapiens, UniProt P30989); format: functional;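 further: Image-based confirmatory dose-response assay measuring agonist activity at NTR1; NTR1-expressing U2OS osteosarcoma cells imaged for beta-arrestin GFP spot formation; agonist potency where compounds increase beta-arrestin recruitment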
Cytochrome P450 2D6 = Cytochrome P450 2D6 (Homo sapiens, UniProt P10635); assay: qHTS Assay for Inhibitors and Substrates of Cytochrome P450 2D6. [Related pubchem assays: 410 ]; format: ADME; conditions: read-out: Potency
Cytochrome P450 2C9 = Cytochrome P450 2C9 (Homo sapiens, UniProt P11712); conditions: Potency
[13] = system: Streptococcus sp. 'group A'; assay: growth inhibition of control SK(-) GAS strain, dose response, counter-screen for streptokinase expression inhibitor project, luminescence, kanamycin, BacTiterGlo, confirmation (AID 1900); format: functional, organism-based
[14] = molecular target: Transitional endoplasmic reticulum ATPase (Homo sapiens, UniProt P55072, C522A); assay: C522A mutant p97 ATPase inhibitors, dose response, counter-screen for p97 inhibitor project, biochemical, luminescence (AID 1544)
Streptokinase A = molecular target: T1, Streptokinase A (Streptococcus pyogenes serotype M1, UniProt P10520); assay: S. pyogenes streptokinase expression inhibitors, potency, dose response, plasminogen activation absorbance, OD405 (AID 1914); format: functional, Streptococcus pyogenes M1 GAS;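 further: secreted streptokinase activity via plasminogen activation per viability signal from cell pellet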
T1 sequence (P10520 whole entry): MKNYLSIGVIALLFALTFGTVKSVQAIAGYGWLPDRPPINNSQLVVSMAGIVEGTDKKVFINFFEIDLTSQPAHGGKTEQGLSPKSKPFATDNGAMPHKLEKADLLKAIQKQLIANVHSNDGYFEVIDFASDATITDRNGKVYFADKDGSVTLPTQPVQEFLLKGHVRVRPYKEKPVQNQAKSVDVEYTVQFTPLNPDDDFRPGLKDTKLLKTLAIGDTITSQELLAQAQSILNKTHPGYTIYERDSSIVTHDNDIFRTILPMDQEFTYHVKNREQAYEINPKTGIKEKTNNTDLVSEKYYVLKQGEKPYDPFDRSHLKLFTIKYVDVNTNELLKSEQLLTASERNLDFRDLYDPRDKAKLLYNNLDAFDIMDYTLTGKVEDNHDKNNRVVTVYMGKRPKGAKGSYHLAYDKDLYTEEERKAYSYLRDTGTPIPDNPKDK

[15] = molecular target: Transitional endoplasmic reticulum ATPase (Homo sapiens, UniProt P55072); assay: p97 ATPase inhibitors, dose response, biochemical (AID 1534)
Streptococcus = assay: Group A Streptococcus viability loss, dose response, counter-screen for streptokinase expression inhibitor project, luminescence, BacTiterGlo (AID 1915); format: functional, organism-based;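 further: potency for reduction of bacterial viability or growth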
Nonstructural protein 1 = Nonstructural protein 1 (Influenza A virus, UniProt Q194T2); format: functional, Influenza A virus (A/California/07/2009(H1N1))
[16] = molecular target: FAD-linked sulfhydryl oxidase ALR (Homo sapiens, UniProt P55789); assay: inhibitors of human ALR sulfhydryl oxidase, dose response, biochemical, H2O2 detection, luminescence, cherry-pick (AID 493248)
[17] = Artemis endonuclease inhibitor potency, dose response, biochemical, fluorescence intensity (AID 720701); format: functional;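 further: Artemis endonuclease enzyme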
[18] = molecular target: T2, Eukaryotic translation initiation factor 2-alpha kinase 3 (Homo sapiens, UniProt Q9NZJ5); assay: Dose response cell-based high-throughput screening assay to measure PERK inhibition. [Related pubchem assays: 1416 ]; format: functional
[19] = molecular target: T2, Eukaryotic translation initiation factor 2-alpha kinase 3; assay: Counterscreen assay for PERK inhibitors: Dose response cell-based high throughput screening assay to measure inhibition of PERK at 6 hours. [Related pubchem assays: 1522, 1416 ]; format: functional
[20] = molecular target: T3, Alkaline phosphatase, tissue-nonspecific isozyme (Homo sapiens, UniProt P05186)
T3 sequence (P05186 whole entry): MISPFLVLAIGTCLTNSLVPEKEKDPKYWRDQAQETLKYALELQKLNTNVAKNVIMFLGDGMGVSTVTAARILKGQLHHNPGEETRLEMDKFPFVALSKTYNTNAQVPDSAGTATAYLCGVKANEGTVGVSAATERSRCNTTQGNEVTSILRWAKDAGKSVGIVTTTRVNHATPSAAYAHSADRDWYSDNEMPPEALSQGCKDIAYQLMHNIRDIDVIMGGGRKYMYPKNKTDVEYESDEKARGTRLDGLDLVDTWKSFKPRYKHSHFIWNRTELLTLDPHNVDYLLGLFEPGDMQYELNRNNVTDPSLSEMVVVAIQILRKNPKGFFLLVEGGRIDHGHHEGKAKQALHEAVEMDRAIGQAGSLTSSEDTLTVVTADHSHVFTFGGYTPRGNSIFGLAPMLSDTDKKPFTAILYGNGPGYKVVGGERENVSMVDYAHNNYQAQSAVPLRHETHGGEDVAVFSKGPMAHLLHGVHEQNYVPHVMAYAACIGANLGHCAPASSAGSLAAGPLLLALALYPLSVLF

## Cc1cc(C)nc(N(C#N)Cc2cccc([N+](=O)[O-])c2)n1
[1]
  AC50: 4.72 µM (active)

## COc1ccc(C(=O)O/N=C(\N)c2ccccn2)cc1
[2]
  EC50: 0.962 µM (active)
[3]
  AC50: 19.8 µM (active)
[4]
  AC50: 2.26 µM (active)
[5]
  AC50: 21.6 µM (active)
[6]
  AC50: 19.4 µM (active)
[7]
  AC50: 7.65 µM (active)
[8]
  AC50: 11.9 µM (active)
[9]
  AC50: 30 µM (active)

## Cc1sc(NC(=O)c2ccco2)nc1-c1ccc2c(c1)CC(C)N2C(=O)C1CC1 (stereo not given)
[10]
  EC50: 7.02 µM (active)
[11]
  EC50: 7.22 µM (active)
[12]
  EC50: 30.2 µM (inactive)

## Clc1nc(NCCc2ccccc2)c2ncn(-c3ccccc3)c2n1
Cytochrome P450 2D6
  AC50: 3.98 µM (inconclusive)
Cytochrome P450 2C9
  AC50: 7.94 µM (inconclusive)

## O=C(NNc1c2ccccc2nc2ccccc12)c1ccc(O)cc1O
[13]
  EC50: 2.59 µM (active)
[14]
  IC50: > 50 µM (not active)
Streptokinase A
  EC50: > 150 µM (not active)
[15]
  IC50: > 50 µM (not active)
Streptococcus
  EC50: 23.7 µM (active)
Nonstructural protein 1
  IC50: 32.1 µM (active)
[16]
  AC50: 0.062 µM (active)
[17]
  IC50: 13.3 µM (active)

## Cc1nsc(N)c1C(=O)O
[18]
  EC50: > 55.7 µM (not active)
[19]
  EC50: > 55.7 µM (not active)

## COc1ccccc1CNC(=O)C1(NC(=O)Nc2ccc(C)cc2)CCCCC1
[20]
  EC50: 37.3 µM (active)
